Columns and labels:
MAO-B = target: T1, MAO-B (Homo sapiens, UniProt P27338); assay: Biochemical assay for MAO-B activity (FLINT, benzylamine/amplex red); conditions: average of two or more tests; 30 min preincubation of enzyme and compound; read-out: MAOB PIC50 MEAN (converted)
T1 construct: purchased Gentest-BD Biosciences 456284
T1 sequence (P27338 1-520): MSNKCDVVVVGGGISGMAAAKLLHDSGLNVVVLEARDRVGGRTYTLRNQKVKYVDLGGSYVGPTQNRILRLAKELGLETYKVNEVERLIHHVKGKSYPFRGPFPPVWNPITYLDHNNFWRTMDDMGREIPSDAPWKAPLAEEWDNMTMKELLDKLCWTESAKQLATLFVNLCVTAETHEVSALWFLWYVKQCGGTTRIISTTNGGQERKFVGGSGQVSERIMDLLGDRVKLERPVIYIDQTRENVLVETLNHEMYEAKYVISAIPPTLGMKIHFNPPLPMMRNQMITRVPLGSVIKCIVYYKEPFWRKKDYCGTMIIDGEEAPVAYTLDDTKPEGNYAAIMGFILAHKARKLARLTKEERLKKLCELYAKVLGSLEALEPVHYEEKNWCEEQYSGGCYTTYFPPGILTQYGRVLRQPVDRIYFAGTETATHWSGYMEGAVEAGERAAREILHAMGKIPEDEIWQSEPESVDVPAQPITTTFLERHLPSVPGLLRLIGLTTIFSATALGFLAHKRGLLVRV
Protocol: Biochemical Assay for MAO-B Activity
The MAO-B FLINT assay is performed in a buffer containing 50 mM potassium phospate, pH 7.4, in milliQ ultrapure water. […] The enzyme and test compound are allowed to incubate together for 30 minutes at room temperature. Five microliters of the substrate mix are then added to each well of the plate to initiate the reaction. The plates are covered, protected from light and allowed to incubate for one hour at room temperature. […] Percent inhibition is calculated based on no compound and no enzyme controls, and inhibition curves are then plotted to determine PIC50 values.

LSD1 = target: T2, LSD1 (Homo sapiens, UniProt O60341); assay: Biochemical assay for LSD-1 activity (luminescence, H3K4 dimethylated peptide substrate); conditions: average of two or more tests; 30 min preincubation of enzyme and compound; read-out: LSD1 PIC50 MEAN (converted)
T2 construct: made in house
Protocol: Biochemical Assay for LSD-1 Activity
The LSD-1 luminescence assay is performed in a buffer containing 25 mM Tris, pH 7.5, 50 mM potassium chloride, 0.02% heat-denatured BSA, 2 mM CHAPS and milliQ ultrapure water. […] The enzyme and test compound are allowed to incubate together for 30 minutes at room temperature. Two microliters of the substrate mix are then added to each well of the plate to initiate the reaction. The plates are covered, protected from light and allowed to incubate for two hours at room temperature. Then, 4 uL of HyPerBlu peroxide detection luminescence reagent (Lumigen/Beckman Coulter, cat# HPB-00005) is added to each well to quench the demethylase reaction and generate the peroxide-dependent luminescence signal. The plates are then incubated for 15-30 minutes in the dark at room temperature prior to being read for Luminescence using a Perkin Elmer Viewlux plate reader. Percent inhibition is calculated based on no compound and no enzyme controls, and inhibition curves are then plotted to determine PIC50 values.

Structure (SMILES) | IC50 (MAO-B) [µM] | IC50 (LSD1) [nM]
CN(CCC1CCNCC1)[C@@H]1C[C@H]1c1ccccc1 (relative stereo) [Example 77, trans-N-Methyl-2-phenyl-N-(2-(piperidin-4-yl)ethyl)cyclopropanamine] | 31.6 | 200
Cc1cc(CN2CCC(CN[C@@H]3C[C@H]3c3ccccc3)CC2)no1 (relative stereo) [Example 47, trans-N-((1-((5-Methylisoxazol-3-yl)methyl)piperidin-4-yl)methyl)-2-phenylcyclopropanamine] | 15.8 | 100
O=C(O)c1ccc(CN2CCC(CN[C@H]3C[C@@H]3c3ccccc3)CC2)cc1 (relative stereo) [Example 26, 4-((4-(((trans-2-phenylcyclopropyl)amino)methyl)piperidin-1-yl)methyl)benzoic acid] | 50.1 | 200
O=C(O)c1ccc(CN2CCC(CN[C@@H]3C[C@H]3c3ccccc3)CC2)cc1 [Example 29, 4-((4-((((1R,2S)-2-phenylcyclopropyl)amino)methyl)piperidin-1-yl)methyl)benzoic acid] | 25.1 | 158

More lines, now with the values ahead:

IC50 (MAO-B) [µM] | IC50 (LSD1) [nM] | Structure (SMILES)
5.01 | 50.1 | O=S(=O)(c1ccccc1)N1CCC(CN[C@@H]2C[C@H]2c2ccccc2)CC1 (relative stereo) [Example 13, trans-2-Phenyl-N-((1-(phenylsulfonyl)piperidin-4-yl)methyl)cyclopropanamine]
0.631 | 39.8 | CC(C)(C)OC(=O)N1CCC(CN[C@@H]2C[C@H]2c2ccccc2)CC1 [Example 2, 1,1-Dimethylethyl 4-({[(1R,2S)-2-phenylcyclopropyl]amino}methyl)-1-piperidinecarboxylate]
63.1 | 20000 | CC(=O)N(CC1CCNCC1)[C@@H]1C[C@H]1c1ccccc1 (relative stereo) [Example 17, N-(trans-2-Phenylcyclopropyl)-N-(piperidin-4-ylmethyl)acetamide]
2 | 79.4 | O=C(Nc1ccccc1)N1CCC(CN[C@@H]2C[C@H]2c2ccccc2)CC1 (relative stereo) [Example 12, N-Phenyl-4-(((trans-2-phenylcyclopropyl)amino)methyl)piperidine-1-carboxamide]

— patent US9795597B2, “Cyclopropylamines as LSD1 inhibitors” (GlaxoSmithKline Intellectual Property (No.2) Limited, priority 2011, dated 2017)
